Measurements published in EP4707277A1, “NOVEL HETEROCYCLIC AMINE DERIVATIVES AND PHARMACEUTICAL COMPOSITION COMPRISING SAME” (Daewoong Pharmaceutical Co., Ltd., priority 2023, dated 2024).
Like-named read-outs stand apart in the source and are kept apart here.

Columns and labels:
BTK = biological target: T1, BTK (Homo sapiens, UniProt Q06187); experiment: Inhibitory activity against BTK, ADP-Glo Kinase system (Promega); assay type: biochemical
T1 construct: purchased Signalchem B10-10H
Protocol: (§1) Inhibitory activities against BTK and ITK were measured for the compounds prepared in the above Examples as follows.
(§2) The inhibitory activities against BTK and ITK were evaluated using 'ADP-Glo™ Kinase system' (Promega Corporation). In the case of this evaluation method, activation was measured by quantifying the amount of ADP produced during the kinase reaction, which was utilized to measure the inhibitory activities against BTK and ITK.
(§3) Specifically, the inhibitory activities against BTK and ITK were measured using BTK kinase (Signalchem, B10-10H), ITK kinase (Signalchem, I13-11G-10), and ADP-Glo kinase assay kit (Promega, V9102). Recombinant purified human BTK and ITK were diluted with 1 x kinase reaction buffer (40 mM Tris-Cl, pH 7.5, 20 mM MgCl2, 0.1 mg/mL BSA, 2 mM MnCl2 and 50 uM DTT) and added to a 96 well plate (ITK: final concentration of 4 ng per reaction/BTK: final concentration of 10 ng per reaction). The compounds prepared in the previous Examples were treated so as to be finally a 1% DMSO aqueous solution, and a substrate cocktail containing ATP (1mM or Km ATP (BTK: 10 uM /ITK: 25uM)) and 0.2 ug/ul of Poly (Glu4,Tyr1) peptide (BTK and ITK final concentration) in the total 25 uL reactants was added to a 96-well plate to initiate enzymatic reaction. After incubation (30°C) for 1 hour, equivalent volume (25 uL per reaction) of ADP Glo was added, and incubated (30°C) for 40 minutes at room temperature. Then, a kinase detection reagent (45 uL per reaction) was added, and incubated (30°C) for 30 minutes at room temperature. The kinase activity was measured by chemiluminescence according to the instructions of ADP Glo kinase assay kit, and the inhibitory activity of the compounds according to the present disclosure was calculated. For the analysis of the results of each compound, Microsoft Excel was used, and IC50 values were calculated by GraphPad Prism software.

ITK = biological target: T2, ITK (Homo sapiens, UniProt Q08881); experiment: Inhibitory activity against ITK, ADP-Glo Kinase system (Promega); assay type: biochemical
T2 construct: purchased Signalchem I13-11G-10
T2 sequence (Q08881 1-620): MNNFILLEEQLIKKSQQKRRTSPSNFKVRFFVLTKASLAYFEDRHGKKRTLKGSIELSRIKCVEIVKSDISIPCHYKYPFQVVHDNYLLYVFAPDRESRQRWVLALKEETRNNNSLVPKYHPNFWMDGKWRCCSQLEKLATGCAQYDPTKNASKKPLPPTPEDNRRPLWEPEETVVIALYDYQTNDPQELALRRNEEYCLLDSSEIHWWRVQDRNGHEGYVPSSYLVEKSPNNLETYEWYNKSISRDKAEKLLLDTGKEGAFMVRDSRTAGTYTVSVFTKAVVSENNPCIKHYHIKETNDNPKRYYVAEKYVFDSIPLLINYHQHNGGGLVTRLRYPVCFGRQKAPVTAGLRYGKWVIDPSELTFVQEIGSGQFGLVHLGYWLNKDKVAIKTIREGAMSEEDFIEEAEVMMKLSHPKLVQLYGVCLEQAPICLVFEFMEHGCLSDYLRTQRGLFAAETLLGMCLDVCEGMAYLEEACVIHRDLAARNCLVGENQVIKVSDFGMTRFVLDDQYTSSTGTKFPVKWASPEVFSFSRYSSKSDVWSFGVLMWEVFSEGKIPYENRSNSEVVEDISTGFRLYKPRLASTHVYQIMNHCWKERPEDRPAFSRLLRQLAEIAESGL
Protocol: as §1, §2, §3

[1] = 1mM ATP, read-out: BTK IC50(nM) 1mM ATP
[2] = 1mM ATP, read-out: ITK IC50(nM) 1mM ATP
[3] = Km ATP (BTK: 10 uM), read-out: BTK IC50(nM) Km ATP
[4] = Km ATP (ITK: 25uM), read-out: ITK IC50(nM) Km ATP

T1 sequence (Q06187 whole entry): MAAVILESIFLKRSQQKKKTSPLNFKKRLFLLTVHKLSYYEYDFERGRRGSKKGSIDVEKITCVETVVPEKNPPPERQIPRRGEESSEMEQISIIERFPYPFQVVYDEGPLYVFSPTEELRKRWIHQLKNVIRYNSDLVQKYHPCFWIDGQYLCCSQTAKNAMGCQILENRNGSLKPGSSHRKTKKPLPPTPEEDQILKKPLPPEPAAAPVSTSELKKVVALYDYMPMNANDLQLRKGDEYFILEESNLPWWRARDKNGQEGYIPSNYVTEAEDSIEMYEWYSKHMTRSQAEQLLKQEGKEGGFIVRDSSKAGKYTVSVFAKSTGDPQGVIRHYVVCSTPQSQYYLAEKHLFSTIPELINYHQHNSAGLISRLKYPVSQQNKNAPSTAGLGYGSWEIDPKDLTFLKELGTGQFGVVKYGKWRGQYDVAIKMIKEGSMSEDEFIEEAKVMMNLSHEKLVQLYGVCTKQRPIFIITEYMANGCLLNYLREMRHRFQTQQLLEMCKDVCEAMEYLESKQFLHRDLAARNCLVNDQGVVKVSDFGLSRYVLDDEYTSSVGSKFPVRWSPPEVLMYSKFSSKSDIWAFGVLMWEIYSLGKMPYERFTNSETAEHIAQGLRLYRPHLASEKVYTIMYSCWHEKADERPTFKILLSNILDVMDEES

IC50 (BTK; [1]) [nM] | IC50 (ITK; [2]) [nM] | IC50 (BTK; [3]) [nM] | IC50 (ITK; [4]) [nM] | SMILES
≤ 20 | ≤ 20 |  |  | C=CC(=O)N1C[C@@H](C)[C@H](Oc2nc(Nc3ncc(C)s3)cc3c2ccn3C(C)C)C1 (racemic) [Example 92, rac-1-((3S,4R)-3-((1-isopropyl-6-((5-methylthiazol-2-yl)amino)-1H-pyrrolo[3,2-c]pyridin-4-yl)oxy)-4-methylpyrrolidin-1-yl)prop-2-en-1-one]
> 500 | > 500 |  |  | C=CC(=O)N1CC[C@@H](Oc2nc(Nc3ncc(C)s3)cc3c2ccn3CC(C)C)C1 (stereo in doubt) [Example 82, (R)-1-(3-((1-isobutyl-6-((5-methylthiazol-2-yl)amino)-1H-pyrrolo[3,2-c]pyridin-4-yl)oxy)pyrrolidin-1-yl)prop-2-en-1-one]
≤ 20 | ≤ 20 |  |  | C=CC(=O)N1CC[C@H](Oc2nc(Nc3ncc(C)s3)cc3c2ccn3CC2(C(F)(F)F)CC2)C1 (stereo in doubt) [Example 102, (S)-1-(3-((6-((5-methylthiazol-2-yl)amino)-1-((1-(trifluoromethyl)cyclopropyl)methyl)-1H-pyrrolo[3,2-c]pyridin-4-yl)oxy)pyrrolidin-1-yl)prop-2-en-1-one]
 |  | ≤ 20 | ≤ 20 | C=CC(=O)N1CC=C(c2nc(Nc3ncc(C)s3)cc3c2ccn3C)CC1 [Example 1, 1-(4-(1-methyl-6-((5-methylthiazol-2-yl)amino)-1H-pyrrolo[3,2-c]pyridin-4-yl)-3,6-dihydropyridin-1(2H)-yl)prop-2-en-1-one]
20 to 100 | 20 to 100 | ≤ 20 | ≤ 20 | C=CC(=O)N1CC=C(c2nc(Nc3ncc(C)s3)cc3c2ccn3C(C)C)CC1 [Example 2, 1-(4-(1-isopropyl-6-((5-methylthiazol-2-yl)amino)-1H-pyrrolo[3,2-c]pyridin-4-yl)-3,6-dihydropyridin-1(2H)-yl)prop-2-en-1-one]
 |  | 100 to 500 | 100 to 500 | C=CC(=O)N1CC=C(c2nc(Nc3ncc(C)s3)cc3c2ccn3C)C1 [Example 3, 1-(3-(1-methyl-6-((5-methylthiazol-2-yl)amino)-1H-pyrrolo[3,2-c]pyridin-4-yl)-2,5-dihydro-1H-pyrrol-1-yl)prop-2-en-1-one]
20 to 100 | 20 to 100 | ≤ 20 | ≤ 20 | C=CC(=O)N1CC=C(c2nc(Nc3ncc(C)s3)cc3c2ccn3CC2CC2)CC1 [Example 4, 1-(4-(1-(cyclopropylmethyl)-6-((5-methylthiazol-2-yl)amino)-1H-pyrrolo[3,2-c]pyridin-4-yl)-3,6-dihydropyridin-1(2H)-yl)prop-2-en-1-one]
 |  | ≤ 20 | ≤ 20 | C=CC(=O)N1CC=C(c2nc(Nc3ncc(C)s3)cc3c2ccn3C2CCCC2)CC1 [Example 5, 1-(4-(1-cyclopentyl-6-((5-methylthiazol-2-yl)amino)-1H-pyrrolo[3,2-c]pyridin-4-yl)-3,6-dihydropyridin-1(2H)-yl)prop-2-en-1-one]
20 to 100 | 100 to 500 | ≤ 20 | ≤ 20 | C=CC(=O)N1CC=C(c2nc(Nc3ncc(C)s3)cc3c2ccn3CC(C)C)CC1 [Example 6, 1-(4-(1-isobutyl-6-((5-methylthiazol-2-yl)amino)-1H-pyrrolo[3,2-c]pyridin-4-yl)-3,6-dihydropyridin-1(2H)-yl)prop-2-en-1-one]
 |  | ≤ 20 | ≤ 20 | C=CC(=O)N1CC=C(c2nc(Nc3ncc(C)s3)cc3c2ccn3CC2CCC2)CC1 [Example 7, 1-(4-(1-(cyclobutylmethyl)-6-((5-methylthiazol-2-yl)amino)-1H-pyrrolo[3,2-c]pyridin-4-yl)-3,6-dihydropyridin-1(2H)-yl)prop-2-en-1-one]
 |  | ≤ 20 | ≤ 20 | C=CC(=O)N1CC=C(c2nc(Nc3ncc(C)s3)cc3c2ccn3CC2CCOC2)CC1 (centres unmarked) [Example 8, 1-(4-(6-((5-methylthiazol-2-yl)amino)-1-((tetrahydrofuran-3-yl)methyl)-1H-pyrrolo[3,2-c]pyridin-4-yl)-3,6-dihydropyridin-1(2H)-yl)prop-2-en-1-one]
 |  | ≤ 20 | ≤ 20 | C=CC(=O)N1CC=C(c2nc(Nc3ncc(C)s3)cc3c2ccn3CC2CCCCC2)CC1 [Example 9, 1-(4-(1-(cyclohexylmethyl)-6-((5-methylthiazol-2-yl)amino)-1H-pyrrolo[3,2-c]pyridin-4-yl)-3,6-dihydropyridin-1(2H)-yl)prop-2-en-1-one]
 |  | ≤ 20 | 20 to 100 | C=CC(=O)N1CC=C(c2nc(Nc3ncc(C)s3)cc3c2ccn3CC2CCCC2)CC1 [Example 10, 1-(4-(1-(cyclopentylmethyl)-6-((5-methylthiazol-2-yl)amino)-1H-pyrrolo[3,2-c]pyridin-4-yl)-3,6-dihydropyridin-1(2H)-yl)prop-2-en-1-one]
 |  | ≤ 20 | ≤ 20 | C=CC(=O)N1CC=C(c2nc(Nc3ncc(C)s3)cc3c2ccn3CC2CCC(F)(F)CC2)CC1 [Example 11, 1-(4-(1-((4,4-difluorocyclohexyl)methyl)-6-((5-methylthiazol-2-yl)amino)-1H-pyrrolo[3,2-c]pyridin-4-yl)-3,6-dihydropyridin-1(2H)-yl)prop-2-en-1-one]
≤ 20 | ≤ 20 | ≤ 20 | ≤ 20 | C=CC(=O)N1CC=C(c2nc(Nc3ncc(C)s3)cc3c2ccn3CC(F)F)CC1 [Example 12, 1-(4-(1-(2,2-difluoroethyl)-6-((5-methylthiazol-2-yl)amino)-1H-pyrrolo[3,2-c]pyridin-4-yl)-3,6-dihydropyridin-1(2H)-yl)prop-2-en-1-one]
 |  | ≤ 20 | ≤ 20 | C=CC(=O)N1CC=C(c2nc(Nc3ncc(C)s3)cc3c2ccn3[C@@H](C)CC)CC1 [Example 13, (S)-1-(4-(1-(sec-butyl)-6-((5-methylthiazol-2-yl)amino)-1H-pyrrolo[3,2-c]pyridin-4-yl)-3,6-dihydropyridin-1(2H)-yl)prop-2-en-1-one]
 |  | ≤ 20 | ≤ 20 | C=CC(=O)N1CC=C(c2nc(Nc3ncc(C)s3)cc3c2ccn3[C@H](C)CC)CC1 [Example 14, (R)-1-(4-(1-(sec-butyl)-6-((5-methylthiazol-2-yl)amino)-1H-pyrrolo[3,2-c]pyridin-4-yl)-3,6-dihydropyridin-1(2H)-yl)prop-2-en-1-one]
 |  | ≤ 20 | ≤ 20 | C=CC(=O)N1CC=C(c2nc(Nc3ncc(C)s3)cc3c2ccn3Cc2ccccc2)CC1 [Example 15, 1-(4-(1-benzyl-6-((5-methylthiazol-2-yl)amino)-1H-pyrrolo[3,2-c]pyridin-4-yl)-3,6-dihydropyridin-1(2H)-yl)prop-2-en-1-one]
 |  | ≤ 20 | ≤ 20 | C=CC(=O)N1CC=C(c2nc(Nc3ncc(C)s3)cc3c2ccn3CCc2ccccc2)CC1 [Example 16, 1-(4-(6-((5-methylthiazol-2-yl)amino)-1-phenethyl-1H-pyrrolo[3,2-c]pyridin-4-yl)-3,6-dihydropyridin-1(2H)-yl)prop-2-en-1-one]
 |  | ≤ 20 | ≤ 20 | C=CC(=O)N1CC=C(c2nc(Nc3ncc(C)s3)cc3c2ccn3CC2(C(F)(F)F)CC2)CC1 [Example 17, 1-(4-(6-((5-methylthiazol-2-yl)amino)-1-((1-(trifluoromethyl)cyclopropyl)methyl)-1H-pyrrolo[3,2-c]pyridin-4-yl)-3,6-dihydropyridin-1(2H)-yl)prop-2-en-1-one]
 |  | 20 to 100 | ≤ 20 | C=CC(=O)N1CC=C(c2nc(Nc3ncc(C)s3)cc3c2ccn3CCC(C)(C)C)CC1 [Example 18, 1-(4-(1-(3,3-dimethylbutyl)-6-((5-methylthiazol-2-yl)amino)-1H-pyrrolo[3,2-c]pyridin-4-yl)-3,6-dihydropyridin-1(2H)-yl)prop-2-en-1-one]
